PMC9321231

How the values were obtained:
[1] = biological target: T1, human neutrophil elastase (HNE) (Homo sapiens, UniProt P08246); test: Kinetic analysis of the inhibition of human neutrophil elastase (Lineweaver-Burk, Dixon, secondary plots); assay type: biochemical; conditions: for Inhibition Type: Lineweaver-Burk and Dixon analysis; for Kis (enzyme-substrate-inhibitor dissociation constant): secondary plot of intercept versus inhibitor concentration; for Ki: secondary plot of slope versus inhibitor concentration, read-out: Ki (enzyme-inhibitor dissociation constant)
T1 sequence (P08246 30-267): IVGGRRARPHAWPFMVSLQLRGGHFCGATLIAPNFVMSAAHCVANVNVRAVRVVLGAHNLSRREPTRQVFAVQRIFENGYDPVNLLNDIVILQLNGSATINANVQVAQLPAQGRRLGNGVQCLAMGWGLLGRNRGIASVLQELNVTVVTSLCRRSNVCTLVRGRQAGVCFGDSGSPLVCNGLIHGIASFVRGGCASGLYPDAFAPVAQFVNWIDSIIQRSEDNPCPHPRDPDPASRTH
Description: Next, kinetic analysis of the mechanism of inhibition of human neutrophil elastase by thiazoles 3a–3j was determined using double-reciprocal plots of Lineweaver-Burk plots and Dixon analysis.
The first model is one in which the inhibitor binds better to the free enzyme (competitive mechanism), while the second model is one in which the inhibitor binds better to the enzyme-substrate complex (non-competitive mechanism). Next the secondary plots of slope versus concentration of test compounds were plotted to determine the enzyme-inhibitor dissociation constants Ki, and similarly as was used to determine enzyme-substrate-inhibitor dissociation constants Kis, the secondary plots of intercept versus concentration of tested compounds were plotted.
Kinetic studies were conducted in the presence of different concentrations of substrate (5, 25, 50 and 100 µM) and test compounds (in the range of 0–500 nM). The reaction conditions were the same as in the HNE inhibition assay and the reaction was monitored for 10 min at 25 °C with the same Ex an Em wavelengths. By Lineweaver–Burk plots, kinetic values such as the Michaelis–Menten constants and maximum velocity were determined. Next, two inhibition constants for inhibitor binding with free enzyme or enzyme–substrate complex (Ki and Kis) were obtained by plotting the secondary plot of the slopes of the determined straight lines or vertical intercept (1/Vmax) versus inhibitor concentration.

[2] = tested on: lung carcinoma (A549) cells; test: Antiproliferative assay (MTT or SRB), A549; assay type: cell-based, human; conditions: for IC50: Homo sapiens, A549, A-549, read-out: IC50 ± SD, antiproliferative activity; for Calculated Selectivity Index SI: IC50 Balb/3T3 / IC50 A-549
Description: (§1) Cell preparation, an in vitro antiproliferative assay, and MTT and SRB cytotoxic tests were performed according to the literature.

[3] = tested on: urinary bladder carcinoma (UMUC-3) cells; test: Antiproliferative assay (MTT or SRB), UMUC-3; assay type: cell-based, human; conditions: for IC50: Homo sapiens, UMUC3, UMUC-3, read-out: IC50 ± SD, antiproliferative activity; for Calculated Selectivity Index SI: IC50 Balb/3T3 / IC50 UMUC-3
Description: as §1

[4] = tested on: normal mouse fibroblast (BALB/3T3) cells; test: Antiproliferative assay (MTT or SRB), normal fibroblasts BALB/3T3; assay type: cell-based; conditions: Balb/3T3 normal mouse fibroblasts; read-out: IC50 ± SD, antiproliferative activity
Description: Anticancer drugs are toxic to cancer cells, but also show some toxicity to healthy cells. […] The selectivity indexes for thiazoles 3a–3j against MV4-11 and A-549 cells were in general much higher than for MDA-MB-231 and UMUC-3 cells.
as §1

[5] = tested on: A549 cells; test: Cell cycle analysis, PI staining flow cytometry; assay type: cell-based, human; conditions: 48 h, control 6.20 ± 0.23%
Description: The rate of cell apoptosis and necrosis was detected using Annexin V-FITC/PI double staining. […] Compound 3e turned out to be a stronger inducer of apoptosis than 3c. […] In turn, compound 3c induced apoptosis only at the concentrations of 10 and 20 µM, and the percentage of cells undergoing apoptosis increased from 6.05 ± 0.17% in the control to 10.14 ± 0.76% and 14.67 ± 0.68%, respectively (Figure 4B). Moreover, compound 3e at a concentration of 5 µM induced apoptosis to a similar level as cisplatin (CDDP) used at a concentration of 4 µM. To identify the mechanism of the 3c- and 3e-induced apoptosis in the A549 cells, the activation of effector caspase-3 was evaluated by flow cytometry. […] To further explore the antiproliferative activity of compounds 3c and 3e, the influence of both compounds on the distribution of cell cycle phases in the A549 cells was analyzed. […] The G2 checkpoint prevents cells from entering mitosis when DNA is damaged, providing an opportunity for repair and stopping the proliferation of damaged cells. […] Apoptosis is a crucial process involved in the regulation of tumor formation and in the treatment response; therefore, cancer therapy has been linked to activation of the apoptosis signal transduction pathway. Caspase-3, an executioner caspase, plays an important role in apoptosis and becomes a primary target for cancer treatment.
The fluorescence-activated cell sorting (FACS) technique was employed to analyze the 3c- and 3e-induced cell death, the activation of executive caspase-3, and the cell cycle in the A549 cells. The quantitative analysis of apoptosis and necrosis was performed using an Annexin V-fluorescein isothiocyanate (FITC)/ propidium iodide (PI) apoptosis kit (BD Biosciences, BD Pharmingen™, San Jose, CA, USA) as previously described. To determine the active form of caspase-3, the A549 cells were plated into 6-well plates at a density of 6 × 10^5 cells/well. The next day, the growth medium was replaced with a fresh one supplemented with compound 3c or 3e (10, 20, and 40 µM) or the DMSO vehicle (0.1%; control cells). After 48-h incubation, the samples were harvested and the level of active caspase-3 was determined using the phycoerythrin (PE) Active Caspase-3 Apoptosis Kit (BD Pharmingen™) according to the manufacturer’s instructions. The stained cells were analyzed using FACS Calibur, and data were analyzed using Cell Quest Pro Version 6.0 (BD Biosciences, San Jose, CA, USA) for the Macintosh operating system. The results were calculated as a percent of cells with active caspase-3 among all the analyzed cells. The cell cycle analysis was performed by determination of the DNA contents on the basis of PI staining as previously described.
Figure 6 Effect of compounds 3c and 3e on cell cycle distribution in A549 cells. After the treatment with the indicated concentrations of compounds 3c and 3e for 48 h, the cells were stained with propidium iodide and analyzed by flow cytometry. (A) Representative DNA histograms of A549 cells treated with compounds 3c and 3e. (B,C) Statistical analysis of the percentages of A549 cells in the sub-G1, G0/G1, S, and G2/M phases after treatment with compounds 3c and 3e, respectively. Data are expressed as means ± SD from three independent experiments. ** p < 0.01 and *** p < 0.001 in comparison to the control; one-way ANOVA followed by Tukey’s post hoc test.

[6] = Spontaneous hydrolysis (chemical stability) in phosphate buffer, spectrophotometric; assay type: physicochemical; conditions: 0.05 M phosphate buffer, pH 7.3, 25 °C; for half-life: t1/2 = 0.693/k'
Description: Testing the stability of new drugs is of great importance for obtaining a good therapeutic profile as well as the safety of their future use. Degradation impurities can reduce drug efficacy and generate undesirable side effects.
The kinetics hydrolysis of the compounds was evaluated at 25 °C in 0.05 M phosphate buffer, pH 7.3, by measuring changes in absorbance spectra during incubation using a T60U spectrophotometer (PG Instruments). The absorbance (At) at characteristic absorption maxima for each compound was measured at 10 min intervals until there was no further decrease in absorbance (Aꝏ). Using these measurements, semilogarithmic plots of the dependence of log(At–Aꝏ) on time were prepared, and k’ values were determined from the slope of these plots according to first order reaction kinetics. Half-conversion times were calculated using equation: t1/2 = 0.693/k’.

Inhibition Type [1]	Kis (enzyme-substrate-inhibitor dissociation constant) [1]	Ki [1]	IC50 [2]	IC50 [3]	k, rate constant of spontaneous hydrolysis [6]	half-life [6]	Compound	Calculated Selectivity Index SI [2]	Calculated Selectivity Index SI [3]	IC50 [4]	G2/M fraction of A549 cells ([5]; 5 µM)	G2/M fraction of A549 cells ([5]; 10 µM)	G2/M fraction of A549 cells ([5]; 20 µM)
mixed type I inhibition	240.00 nM	0.0358 µM	6.32 ± 0.89 µM	7.49 ± 0.64 µM	0.0175 min⁻¹	39.6 min	CCC1(CC)C(=O)N(c2ccc(-c3csc(Nc4ccc(S(N)(=O)=O)cc4)n3)cc2)C1=O [3e, 4-(4-(4-(3,3-Diethyl-2,4-dioxoazetidin-1-yl)phenyl)thiazol-2-ylamino)benzenesulfo-namide]	1.04	0.88	6.57 ± 0.21 µM	9.08 ± 0.69%	10.83 ± 1.06%	35.78 ± 0.46%
mixed type I inhibition	99.50 nM	0.0661 µM	6.4 ± 0.08 µM	6.9 ± 0.21 µM	0.015 min⁻¹	46.2 min	CCC1(CC)C(=O)N(c2ccc(-c3csc(Nc4cc(OC)c(OC)c(OC)c4)n3)cc2)C1=O [3c, 3,3-Diethyl-1-(4-(2-(3,4,5-trimethoxyphenylamino)thiazol-4-yl)phenyl)azetidine-2,4-dione]	1.16	1.07	7.42 ± 1.04 µM	9.69 ± 0.77%	15.68 ± 5.31%	29.04 ± 1.09%
